{
  "source": "patent US20050112607A1",
  "about": "“Rapid and sensitive detection of protein aggregation” (priority 1999, published 2005)",
  "key": {"[1]": {"experiment": "Colloid/colloid linkage via biotin/streptavidin, color change", "type": "binding", "settings": "streptavidin added to biotin-SAM colloids", "procedure": "A set of gold colloids was derivatized with self-assembled monolayers that incorporated biotin-thiols (SAM forming species included C11, 3 ethylene glycol units, then biotin) along with C16 carboxy-terminated thiols (a mixed SAM). Streptavidin, which has four binding sites for biotin, or a random protein (GST) was added to the colloid solutions."}, "[2]": {"system": "histidine-tagged RGD-motif-containing peptide", "experiment": "Colloid/colloid color change assay with RGD-peptide-bound NTA-Ni colloids", "type": "binding", "settings": "100 ul or 50 ul protein per well, room temperature, after approximately 15 minutes", "procedure": "(§1) 600 microliters colloids, derivatized with a self-assembled monolayer that presents nitrilo tri-acetic acid, NTA (for the capture of histidine-tagged proteins), was mixed with 60 microliters of 500 micromolar histidine-tagged RGD-motif-containing peptide. 600 microliters of a second set of NTA-Ni presenting colloids was mixed with 60 ul of a 500 uM solution of GST, an irrelevant protein, as a negative control. Colloids were spun down and resuspended in phosphate buffer to remove residual unbound protein or peptide. Endostatin and Angiostatin, two proteins implicated in angiogenesis and suspected of binding to regions of vitronectin, such as the RGD peptide, were prepared by dialysis into phoshate-buffered saline solution and then 1:10 dilution into PBS from a stock concentration of 1 mg/mL.\n(§2) 400 ul phosphate buffer (pH 7.4), 200 ul either RGD-bound colloids or GST-bound colloids, and either 100 ul endostatin or angiostatin, 50 ul endostatin or angiostatin/50 ul phosphate buffer, or 100 ul phosphate buffer (as a negative control) were added to each well of a crystallization dish. Color change was monitored over time at room temperature. […] The histidine-tagged proteins were then eluted using imidazole, and the samples were analyzed by SDS-PAGE. […]"}, "GST": {"target": "GST (Schistosoma japonicum, UniProt P08515)", "sequence (P08515 whole entry)": "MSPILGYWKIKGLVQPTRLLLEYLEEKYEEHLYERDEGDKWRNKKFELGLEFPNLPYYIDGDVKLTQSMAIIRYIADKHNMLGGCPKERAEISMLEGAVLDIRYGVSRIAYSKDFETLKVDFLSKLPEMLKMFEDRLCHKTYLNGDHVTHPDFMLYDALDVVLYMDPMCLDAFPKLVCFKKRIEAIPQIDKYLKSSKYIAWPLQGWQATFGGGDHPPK", "experiment": "Colloid/colloid color change assay with GST-bound NTA-Ni colloids (irrelevant protein)", "type": "binding", "settings": "100 ul or 50 ul protein per well, room temperature", "procedure": "as §1, §2"}, "resin-immobilized GST": {"target": "resin-immobilized GST (Schistosoma japonicum, UniProt P08515)", "sequence (P08515 whole entry)": "as above", "experiment": "NTA-Ni agarose resin binding, imidazole elution, SDS-PAGE (GST)", "procedure": "(§3) 400 ul phosphate buffer (pH 7.4), 200 ul either RGD-bound colloids or GST-bound colloids, and either 100 ul endostatin or angiostatin, 50 ul endostatin or angiostatin/50 ul phosphate buffer, or 100 ul phosphate buffer (as a negative control) were added to each well of a crystallization dish. Color change was monitored over time at room temperature. […] The color change was more pronounced in the well that contained 100 ul endostatin than in the well that contained 50 ul endostatin/50 ul phospate buffer. […] Row A included colloids and angiostatin. Row B included colloids with endostatin. (Rows C and D are empty wells). Columns 1-3 have RGD peptide immobilized on the colloids. […] have an irrelevant protein, GST, immobilized on the colloid. Columns 1 and 4 contain […] of the relevant drug (endostatin or angiostatin). […] The results were verified by gel electrophoresis. The RGD peptide and histidine-tagged GST were bound to a small amount of NTA-Ni agarose resin at saturating concentration. Endostatin was incubated with the resin and allowed to bind to the protein on the resin. The histidine-tagged proteins were then eluted using imidazole, and the samples were analyzed by SDS-PAGE. […] This assay could be easily adapted for screening of drug candidates that either mimic the RGD-binding characteristic of endostatin or bind to the RGD-binding domains on endostatin. […]"}, "[3]": {"system": "resin-immobilized RGD peptide", "experiment": "NTA-Ni agarose resin binding, imidazole elution, SDS-PAGE (RGD peptide)", "procedure": "as §3"}},
  "data": [
    {"substance": "Streptavidin", "values": [
      {"measurement": "Color change of biotin-presenting colloid solution", "setting": "[1]", "result": "immediately turned blue"}
    ]},
    {"substance": "angiostatin", "values": [
      {"measurement": "Color change from red to blue of RGD-peptide-bound colloids", "setting": "[2]", "result": "No color change occurred"},
      {"measurement": "Color change of GST-bound colloids", "setting": "GST", "result": "No color change occurred"}
    ]},
    {"substance": "endostatin", "values": [
      {"measurement": "Color change from red to blue of RGD-peptide-bound colloids", "setting": "[2]", "result": "a color change from red to blue was visible"},
      {"measurement": "Binding to resin-immobilized GST (SDS-PAGE)", "setting": "resin-immobilized GST", "result": "did not bind to the resin-immobilized GST"},
      {"measurement": "Color change of GST-bound colloids", "setting": "GST", "result": "No color change occurred"},
      {"measurement": "Binding to resin-immobilized RGD peptide (SDS-PAGE)", "setting": "[3]", "result": "bound to the resin-immobilized RGD peptide"}
    ]}
  ]
}
